Laboratory results taken from US11014902B2, “MYC G-quadruplex stabilizing small molecules and their use” (The United States of America, as represented by the …, priority 2015, dated 2021).

Experiments:
ARD = assay: Multiple myeloma cell viability; format: cell-based
Procedure: (§1) Human multiple myeloma and Burkitt's Lymphoma cell lines L363, CA46, MM-1R, KMS-11, and MM-1S were cultured and authenticated as previously described (Simmons, et al., Molecular oncology 2014, 8, 261). All plasma derived cell lines were cultured in RPMI-1640 (2 mM L-glutamine, 10% fetal bovine serum (FBS), 100 U/ml penicillin, 100 μg/ml streptomycin: Gibco) and incubated at 37° C. with 5% CO2. Viability experiments were performed in quadruplicate on 96-well plates (Costar) at designated time and dose points. MTS reagent was then directly added, incubated at 37° C. for 90 min, and absorbance of MTS formazan was read at 500 nm on an Omega 640 spectrophotometer. Percentage cell viability was normalized to the absorbance of untreated (DMSO) wells. In the case of cells harvested for their protein or RNA, pellets were flash frozen and stored at −80° C. overnight prior to use.
(§2) Additional multiple myeloma cell lines were assayed for cell viability in the presence of Compound 23, and the following IC50 values were determined.

JIM1 = assay: Multiple myeloma cell viability; format: cell-based
Procedure: as §1, §2

KMM1 = assay: Multiple myeloma cell viability; format: cell-based; conditions: KMM-1
Procedure: as §1, §2

[1] = Pharmacokinetic evaluation, blood plasma levels by mass spectrometry; format: in vivo; conditions: single injection 19 mg/kg, female nude mice; for Tmax / half-life: mouse
Procedure: The blood plasma levels of Compound 23 after a single IP or IV injection (19 mg/kg) in female nude mice were determined by mass spectrometry (see FIG. 12 and the following table).

[2] = test system: c-MYC expression in L363 xenograft tumors; assay: Pharmacodynamic evaluation in L363 subcutaneous xenografts (western blot); format: in vivo; conditions: single dose 19 mg/kg or 38 mg/kg IP; tumors harvested 2 and 8 hours; nude mice with L363 xenografts
Procedure: The capacity of Compound 23 to inhibit c-MYC expression in tumor was evaluated in nude mice bearing subcutaneous xenografts of the human multiple myeloma cell line L363. In this assay, tumors from two tumor-bearing mice were harvested 2 and 8 hours after a single dose of Compound 23 at 19 mg/kg or 38 mg/kg (administered IP).

[3] = test system: c-MYC exon 1 transcription in CA46 cells; assay: Exon specific qPCR assay, exon 1; format: cell-based, human; conditions: 10 μM, up to 48 hours
Source text: To confirm a G4 specific mechanism of action in cells, the CA46 Burkitt's Lymphoma line was used in an exon-specific assay, as previously reported (Boddupally, et al., J Med Chem 2012, 55, 6076). For most cell lines, 85-90% of c-Myc expression is controlled by the G4 located prior to exons 1 and 2 in the promoter. Furthermore, expression predominantly occurs following exon 2, due to a thousand-fold increase in transcription from this allele (Brown, et al., J Biol Chem 2011, 286, 41018). The CA46 Burkitt's Lymphoma cell line is an exception to this trend due to the existence of a chromosome (8:14) (Pelicci, et al., Proc Natl Acad Sci USA 1986, 83, 2984) translocation between exons 1 and 2, leaving exon 1 under G4 control. As a result, c-Myc expression from exon 2 is G4 independent (FIG. 3B). This renders the overall cell line resistant to G4-mediated c-Myc inhibition at the RNA and protein level, and proliferation should be uninhibited by G4-stabilizing agents.
CA46 cells were treated with ligands of interest or DMSO control at designated time points, washed in PBS, flash frozen, and RNA isolated using the Qiagen RNeasy Kit. RNA was quantified by NanoDrop, and 0.5 μg was reverse transcribed for use in qPCR. […]

c-Myc transcription = c-Myc transcription in myeloma cells (qPCR); format: cell-based, human; conditions: 10 μM, after 24 hours
Procedure: Since two thirds of multiple myeloma cases involve deregulated c-MYC expression (Kuehl and Bergsagel, Blood 2012, 120, 2351; Shou, et al., Proc Natl Acad Sci USA 2000, 97, 228), we elected to evaluate the cell viability effects of Compound 1 in a multiple myeloma model. […] This suppression was maintained over 72 hours, which is notable given the characteristic rapid replenishment of the protein—a phenomenon that complicates targeting c-Myc at the protein level (FIG. 4C). This effect was maintained across a genetically diverse set of 4 multiple myeloma lines. We observed decreases in c-MYC translation in all lines tested, and this effect also correlated with decreases in viability (FIG. 4D).

L363 cells = assay: Cell cycle analysis (propidium iodide staining); format: cell-based, human; conditions: 10 μM, after 72 hours
Procedure: To further explore the mechanism of action for the anticancer activity of Compound 1, cell cycle analysis was performed and monitored for potential induction of apoptotic death. […] Additionally, minimal increases in apoptosis were observed, by Annexin V/7-AAD staining and FACS analysis; only 13% of the cells were undergoing apoptosis (FIG. 5B).

RB1, BCL2 G4s = assay: Biophysical measurements of compound affinity, RB1 and BCL2 G4s; format: binding

| SMILES | IC50 (ARD) | IC50 (JIM1) | IC50 (KMM1) | Kel ([1]; IP) | Kel ([1]; IV) | Tmax ([1]; IP) | half-life ([1]; IP) | Tmax ([1]; IV) | half-life ([1]; IV) | c-MYC expression levels in tumors compared to vehicle control tumors [2] | transcription from exon 1 [3] | decrease in c-Myc transcription (c-Myc transcription) | treated cells arrested in the G1 phase (L363 cells) | G4 binding relative to MYC (RB1, BCL2 G4s) |
| --- | --- | --- | --- | --- | --- | --- | --- | --- | --- | --- | --- | --- | --- | --- |
| Cc1oc2ccc(O)c(CN3CCCCCC3)c2c1C(=O)Nc1ccc(C(F)(F)F)cc1 [Compound 23] | 5.75 µM | 6.35 µM | 4.13 µM | 0.277 h⁻¹ | 0.277 h⁻¹ | 1 h | 6.5 h | 0.38 h | 2.25 h | decreased c-MYC expression levels | – | – | – | – |
| Cc1ccc(NC(=O)c2c(C)oc3ccc(O)c(CN4CCCCCC4)c23)cc1 [Compound 1] | – | – | – | – | – | – | – | – | – | – | sustained downregulation | seven-fold decrease | ~85% | weaker binding |
